In ChEMBL document CHEMBL5579877, “Design and Evaluation of 3-Phenyloxetane Derivative Agonists of the Glucagon-Like Peptide-1 Receptor” (J Med Chem, 2024):
Each block holds one compound with its values, some of them ahead of it. Calls of active or inactive are those of the source. The calls are words filed in the database; no cut-off is given here.

Tests used:
[1] = Cmax in cynomolgus monkey at 20 mg/kg, po; type: ADME, organism-based, Macaca fascicularis; details: in vivo
[2] = Tmax in cynomolgus monkey at 2 mg/kg, iv; type: ADME, organism-based, Macaca fascicularis; details: in vivo
[3] = Cmax in ICR mouse at 5 mg/kg, po by LC-MS/MS analysis; type: ADME, organism-based; details: in vivo
[4] = Permeability across apical to basolateral in human Caco-2 cells at 10 uM incubated for 120 mins by LC-MS/MS analysis; type: ADME, cell-based; details: read-out: permeability
[5] = target: T1, 5-hydroxytryptamine receptor 1A (Homo sapiens) (UniProt P08908); test: Inhibition of 5HT1A (unknown origin) relative to control; details: concentration not given here
T1 sequence (whole entry): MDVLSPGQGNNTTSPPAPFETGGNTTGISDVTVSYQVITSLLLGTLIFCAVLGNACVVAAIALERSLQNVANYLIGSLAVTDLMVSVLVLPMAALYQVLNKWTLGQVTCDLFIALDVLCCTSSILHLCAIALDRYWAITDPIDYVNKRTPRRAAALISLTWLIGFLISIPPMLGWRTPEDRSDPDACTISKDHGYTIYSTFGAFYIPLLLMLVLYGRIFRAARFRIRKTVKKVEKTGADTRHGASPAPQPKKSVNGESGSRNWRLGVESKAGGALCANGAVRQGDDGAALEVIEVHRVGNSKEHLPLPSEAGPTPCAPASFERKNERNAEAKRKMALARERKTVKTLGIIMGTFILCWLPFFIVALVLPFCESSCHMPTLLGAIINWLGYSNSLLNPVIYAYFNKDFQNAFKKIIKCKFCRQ

Cytochrome P450 2C8 = target: T2, Cytochrome P450 2C8 (Homo sapiens, UniProt P10632); test: Inhibition of CYP2C8 in human liver microsomes using paclitaxel as substrate preincubated for 5 mins followed by NADPH addition and measured after 20 mins by LC-MS/MS analysis; type: ADME, Microsome
T2 sequence (P10632 whole entry): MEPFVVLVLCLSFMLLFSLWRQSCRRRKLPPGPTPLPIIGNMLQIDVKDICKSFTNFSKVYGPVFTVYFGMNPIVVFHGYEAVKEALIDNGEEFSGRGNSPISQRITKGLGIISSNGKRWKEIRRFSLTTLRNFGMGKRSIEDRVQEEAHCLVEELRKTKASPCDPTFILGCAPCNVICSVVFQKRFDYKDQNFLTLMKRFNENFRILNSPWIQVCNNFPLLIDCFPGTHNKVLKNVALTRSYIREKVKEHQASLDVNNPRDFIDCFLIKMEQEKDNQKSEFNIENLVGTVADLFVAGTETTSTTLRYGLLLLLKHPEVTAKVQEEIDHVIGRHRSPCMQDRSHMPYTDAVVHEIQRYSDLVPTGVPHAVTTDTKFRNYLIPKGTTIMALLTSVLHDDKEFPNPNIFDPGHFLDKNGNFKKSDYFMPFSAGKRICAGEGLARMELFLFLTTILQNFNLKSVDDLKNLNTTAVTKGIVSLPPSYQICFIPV

[6] = AUC in ICR mouse at 2 mg/kg, iv by LC-MS/MS analysis; type: ADME, organism-based; details: in vivo
[7] = target: T3, 5-hydroxytryptamine receptor 1A (Homo sapiens, UniProt P08908); test: Inhibition of 5HT1A (unknown origin)
T3 sequence (P08908 whole entry): T1 sequence (whole entry)

Cytochrome P450 2C9 = Cytochrome P450 2C9 (Homo sapiens, UniProt P11712); test: Inhibition of CYP2C9 in human liver microsomes using diclofenac as substrate preincubated for 5 mins followed by NADPH addition and measured after 10 mins by LC-MS/MS analysis; type: ADME, Microsome
[8] = Apparent volume of distribution in ICR mouse at 2 mg/kg, iv by LC-MS/MS analysis; type: ADME, organism-based; details: in vivo, read-out: Vz
[9] = target: T4, Glucagon-like peptide 1 receptor (Rattus norvegicus) (UniProt P32301); test: Activation of rat GLP-1R
T4 sequence (whole entry): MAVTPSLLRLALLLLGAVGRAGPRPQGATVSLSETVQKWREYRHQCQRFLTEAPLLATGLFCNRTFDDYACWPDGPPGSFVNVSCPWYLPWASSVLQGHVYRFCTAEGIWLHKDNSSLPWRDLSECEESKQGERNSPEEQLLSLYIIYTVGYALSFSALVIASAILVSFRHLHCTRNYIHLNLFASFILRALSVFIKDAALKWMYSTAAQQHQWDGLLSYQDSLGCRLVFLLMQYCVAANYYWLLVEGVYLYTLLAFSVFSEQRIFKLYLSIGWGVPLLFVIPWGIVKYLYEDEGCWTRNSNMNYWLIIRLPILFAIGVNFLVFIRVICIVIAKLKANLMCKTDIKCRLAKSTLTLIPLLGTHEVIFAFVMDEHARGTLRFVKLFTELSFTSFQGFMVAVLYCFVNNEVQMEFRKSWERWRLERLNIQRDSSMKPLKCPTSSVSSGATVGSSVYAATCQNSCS

[10] = Efflux ratio of permeability across basolateral to apical side over apical to basolateral side in human Caco-2; type: ADME, cell-based
[11] = target: T5, 5-hydroxytryptamine receptor 2A (Homo sapiens, UniProt P28223); test: Inhibition of 5HT2A (unknown origin)
hERG (KCNH2) [12] = target: T6, hERG (KCNH2) (Homo sapiens, UniProt Q12809); test: Inhibition of human ERG at 10 uM by whole cell patch clamp method relative to control; type: toxicity
[13] = Drug distribution in rat intestine at 5 mg/kg, po; type: ADME, organism-based; details: in vivo
[14] = target: T7, Glucagon-like peptide 1 receptor (Mus musculus) (UniProt O35659); test: Activation of mouse GLP-1R
T7 sequence (whole entry): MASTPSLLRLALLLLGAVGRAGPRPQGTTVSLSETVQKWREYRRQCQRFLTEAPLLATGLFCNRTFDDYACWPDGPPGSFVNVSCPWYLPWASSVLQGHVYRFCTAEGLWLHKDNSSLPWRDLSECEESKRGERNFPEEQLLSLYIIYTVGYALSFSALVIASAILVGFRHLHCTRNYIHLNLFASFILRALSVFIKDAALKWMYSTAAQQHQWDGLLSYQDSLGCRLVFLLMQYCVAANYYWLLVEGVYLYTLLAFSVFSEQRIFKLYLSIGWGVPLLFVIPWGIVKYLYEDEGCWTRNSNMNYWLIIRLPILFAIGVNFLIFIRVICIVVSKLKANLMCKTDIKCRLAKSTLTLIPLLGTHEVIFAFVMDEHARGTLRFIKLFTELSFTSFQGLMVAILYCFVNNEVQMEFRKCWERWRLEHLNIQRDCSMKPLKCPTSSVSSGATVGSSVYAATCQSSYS

[15] = target: T8, Glucagon-like peptide 1 receptor (Homo sapiens, UniProt P43220); test: Activation of human GLP-1R; details: filed as activator
hERG (KCNH2) [16] = target: T6, hERG (KCNH2); test: Inhibition of human ERG at 1 uM by whole cell patch clamp method relative to control; type: toxicity
Macaca mulatta = species on record: Macaca mulatta; test: Activation of monkey GLP-1R; details: filed as activator
[17] = target: T8, Glucagon-like peptide 1 receptor; test: Agonist activity at GLP-1R (unknown origin) assessed as beta-arrestin 1 recruitment; type: functional
[18] = Drug distribution in rat liver at 5 mg/kg, po; type: ADME, organism-based; details: in vivo
[19] = target: T8, Glucagon-like peptide 1 receptor; test: Agonist activity at GLP-1R (unknown origin) assessed as beta-arrestin 2 recruitment; type: functional
[20] = target: T5, 5-hydroxytryptamine receptor 2A; test: Inhibition of 5HT2A (unknown origin) relative to control; details: concentration not given here
[21] = Drug distribution in rat stomach at 5 mg/kg, po; type: ADME, organism-based; details: in vivo

T8 sequence (P43220 whole entry): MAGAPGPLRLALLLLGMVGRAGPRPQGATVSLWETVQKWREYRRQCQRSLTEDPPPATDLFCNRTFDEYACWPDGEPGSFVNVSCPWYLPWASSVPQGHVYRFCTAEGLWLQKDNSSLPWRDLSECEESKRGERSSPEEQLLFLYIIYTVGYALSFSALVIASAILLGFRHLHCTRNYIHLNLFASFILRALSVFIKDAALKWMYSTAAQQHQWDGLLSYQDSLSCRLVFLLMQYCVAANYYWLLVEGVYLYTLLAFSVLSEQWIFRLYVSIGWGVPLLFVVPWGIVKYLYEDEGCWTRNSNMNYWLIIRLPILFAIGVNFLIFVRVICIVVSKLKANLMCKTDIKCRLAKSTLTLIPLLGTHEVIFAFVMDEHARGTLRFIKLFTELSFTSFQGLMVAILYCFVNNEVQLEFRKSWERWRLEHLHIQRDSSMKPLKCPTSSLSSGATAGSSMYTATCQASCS
T5 sequence (P28223 whole entry): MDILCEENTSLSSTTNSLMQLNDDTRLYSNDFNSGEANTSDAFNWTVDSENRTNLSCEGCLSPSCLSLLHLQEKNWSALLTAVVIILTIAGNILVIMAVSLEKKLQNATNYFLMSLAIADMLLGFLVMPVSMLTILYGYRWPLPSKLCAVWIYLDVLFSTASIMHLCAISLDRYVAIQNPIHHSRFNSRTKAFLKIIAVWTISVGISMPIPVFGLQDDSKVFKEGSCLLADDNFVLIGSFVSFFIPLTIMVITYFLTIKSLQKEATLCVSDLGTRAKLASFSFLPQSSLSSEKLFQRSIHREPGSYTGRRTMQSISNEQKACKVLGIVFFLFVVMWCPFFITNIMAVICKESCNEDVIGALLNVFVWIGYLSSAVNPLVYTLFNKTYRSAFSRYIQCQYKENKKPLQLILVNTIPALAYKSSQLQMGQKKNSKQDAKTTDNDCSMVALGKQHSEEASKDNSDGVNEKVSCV
T6 sequence (Q12809 whole entry): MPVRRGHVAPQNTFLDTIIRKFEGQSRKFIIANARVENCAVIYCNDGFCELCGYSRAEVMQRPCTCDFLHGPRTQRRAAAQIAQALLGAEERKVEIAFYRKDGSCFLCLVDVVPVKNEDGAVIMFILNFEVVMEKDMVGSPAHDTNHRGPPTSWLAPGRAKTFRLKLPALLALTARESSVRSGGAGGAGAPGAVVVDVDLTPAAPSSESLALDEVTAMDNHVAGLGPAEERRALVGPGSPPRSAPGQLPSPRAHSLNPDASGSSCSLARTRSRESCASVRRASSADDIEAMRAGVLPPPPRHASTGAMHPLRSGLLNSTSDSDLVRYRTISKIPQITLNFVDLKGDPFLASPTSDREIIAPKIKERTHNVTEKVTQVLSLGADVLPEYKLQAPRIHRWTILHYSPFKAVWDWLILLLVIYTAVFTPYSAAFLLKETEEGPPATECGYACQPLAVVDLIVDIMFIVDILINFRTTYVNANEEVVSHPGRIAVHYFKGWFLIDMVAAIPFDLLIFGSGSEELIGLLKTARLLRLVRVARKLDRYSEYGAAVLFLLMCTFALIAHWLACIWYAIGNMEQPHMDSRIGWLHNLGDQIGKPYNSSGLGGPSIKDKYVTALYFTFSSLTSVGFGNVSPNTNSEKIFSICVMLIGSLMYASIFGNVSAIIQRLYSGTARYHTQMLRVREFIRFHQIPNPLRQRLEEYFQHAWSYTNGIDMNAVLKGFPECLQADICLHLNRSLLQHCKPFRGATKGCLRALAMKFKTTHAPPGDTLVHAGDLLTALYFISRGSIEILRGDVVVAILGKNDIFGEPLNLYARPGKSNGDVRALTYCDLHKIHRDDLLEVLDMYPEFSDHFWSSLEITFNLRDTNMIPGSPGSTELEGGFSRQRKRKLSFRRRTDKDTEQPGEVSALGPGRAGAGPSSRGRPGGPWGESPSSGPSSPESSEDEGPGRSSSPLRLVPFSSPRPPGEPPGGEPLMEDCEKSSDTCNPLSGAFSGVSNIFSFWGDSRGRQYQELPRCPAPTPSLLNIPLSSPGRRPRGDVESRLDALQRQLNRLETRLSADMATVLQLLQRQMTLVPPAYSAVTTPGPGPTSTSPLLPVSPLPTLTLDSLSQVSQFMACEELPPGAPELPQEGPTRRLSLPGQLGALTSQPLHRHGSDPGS
Chain of Cytochrome P450 2C9 (P11712 whole entry): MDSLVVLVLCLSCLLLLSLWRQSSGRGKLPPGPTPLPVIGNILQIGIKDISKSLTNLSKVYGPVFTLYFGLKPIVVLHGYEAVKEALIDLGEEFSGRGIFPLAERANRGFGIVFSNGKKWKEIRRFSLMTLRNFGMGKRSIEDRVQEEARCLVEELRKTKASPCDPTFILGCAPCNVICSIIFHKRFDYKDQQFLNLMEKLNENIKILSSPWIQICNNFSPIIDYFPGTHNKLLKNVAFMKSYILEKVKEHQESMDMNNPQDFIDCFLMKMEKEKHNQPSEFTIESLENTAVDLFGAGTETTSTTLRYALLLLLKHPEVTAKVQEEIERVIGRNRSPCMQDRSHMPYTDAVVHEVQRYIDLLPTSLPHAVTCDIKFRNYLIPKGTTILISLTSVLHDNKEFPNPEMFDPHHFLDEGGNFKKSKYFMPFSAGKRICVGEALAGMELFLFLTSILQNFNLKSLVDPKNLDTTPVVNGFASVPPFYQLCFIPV

SMILES: N#Cc1ccc(COc2cccc(C3CCN(Cc4nc5ccc(C(=O)O)cc5n4C[C@@H]4CCO4)CC3)n2)c(F)c1 [DANUGLIPRON]
Cmax [1]: 163 µM
Tmax [2]: 1.21 h
Cmax [3]: 2.84 µg/mL
Papp A→B at 2 h, 10 µM [4]: 39.3 nm/s
inhibition [5]: 86.9%
IC50 (Cytochrome P450 2C8): 1.25 µM
AUC [6]: 1.67 µg·h/mL
IC50 [7]: 2.42 µM
IC50 (Cytochrome P450 2C9): > 10 µM
Vd [8]: 4.26 L/kg

Activity [9]: inactive
Tmax [2]: 1.39 h
Cmax [3]: 2.09 µg/mL
efflux ratio [10]: 5.26
Papp A→B at 2 h, 10 µM [4]: 31.4 nm/s
IC50 [11]: 8.76 µM
Drug uptake [13]: Active
Activity [14]: inactive
Activity [15]: Active
Activity (Macaca mulatta): Active
IC50 (Cytochrome P450 2C8): 0.22 µM
Activity [17]: inactive
Drug uptake [18]: Active
AUC [6]: 1.67 µg·h/mL
Activity [19]: inactive
inhibition [20]: 57.8%
IC50 (Cytochrome P450 2C9): > 10 µM
Vd [8]: 12.2 L/kg
Drug uptake [21]: Active
SMILES: O=C(O)c1ccc2nc(CN3CCC(c4cccc(OCc5ccc(C6COC6)cc5F)n4)CC3)n(C[C@@H]3CCO3)c2c1
inhibition at 10 µM (hERG (KCNH2) [12]): 40.7%
inhibition at 1 µM (hERG (KCNH2) [16]): 3.75%
